Paper PMC8373063 (2021)

What was measured:
[1] = system: RNA Seq4 (immobilised) (RNA, single strand) AAGAAGGAAGGUGC; assay: SPR, immobilised RNA; settings: running buffer not shown; SMN-C2 up to 20 μM
[2] = system: RNA Seq6 (RNA, single strand) UGAAGGAAGGU; assay: fluorescence polarization; settings: 100 mM NaCl; 20 mM HEPES, 25 °C; 0.5 μM SMN-C2
[3] = system: RNA Seq8 (RNA, single strand) UGAAGGAAGUU; assay: fluorescence polarization; settings: 100 mM NaCl; 20 mM HEPES, 25 °C; 0.5 μM SMN-C2
[4] = system: RNA Seq13 (RNA, single strand) UGAAGAAAGGU; assay: fluorescence polarization; settings: 100 mM NaCl; 20 mM HEPES, 25 °C; 0.5 μM SMN-C2
[5] = system: RNA Seq16 (RNA, single strand) UGAAGGAAAGU; assay: fluorescence polarization; settings: 100 mM NaCl; 20 mM HEPES, 25 °C; 0.5 μM SMN-C2
[6] = system: RNA Seq17 (RNA, single strand) UGAAGGAAGAU; assay: fluorescence polarization; settings: 100 mM NaCl; 20 mM HEPES, 25 °C; 0.5 μM SMN-C2
[7] = system: RNA Seq18 (binding site 1 sequence) (RNA, mismatch bulge abasic, pseudouridine at 5 and 6 of strand 1) AUACUUACCU/GGAGGUAAGUCU; assay: fluorescence polarization; settings: 100 mM NaCl; 20 mM HEPES, 25 °C; 0.5 μM SMN-C2
[8] = system: DNA Seq7 (DNA, single strand) TTAAGGAAGGT; assay: fluorescence polarization; settings: 100 mM NaCl, 1 mM MgCl2; 20 mM HEPES, 25 °C; 0.5 μM SMN-C2
[9] = system: DNA Seq8 (DNA, single strand) TGAAGGAAGTT; assay: fluorescence polarization; settings: 100 mM NaCl, 1 mM MgCl2; 20 mM HEPES, 25 °C; 0.5 μM SMN-C2
[10] = system: DNA Seq10 (DNA, single strand) TAAAGGAAGGT; assay: fluorescence polarization; settings: 100 mM NaCl, 1 mM MgCl2; 20 mM HEPES, 25 °C; 0.5 μM SMN-C2
[11] = system: DNA Seq11 (DNA, single strand) TGGAGGAAGGT; assay: fluorescence polarization; settings: 100 mM NaCl, 1 mM MgCl2; 20 mM HEPES, 25 °C; 0.5 μM SMN-C2
[12] = system: DNA Seq12 (DNA, single strand) TGAAAGAAGGT; assay: fluorescence polarization; settings: 100 mM NaCl, 1 mM MgCl2; 20 mM HEPES, 25 °C; 0.5 μM SMN-C2
[13] = system: DNA Seq13 (DNA, single strand) TGAAGAAAGGT; assay: fluorescence polarization; settings: 100 mM NaCl, 1 mM MgCl2; 20 mM HEPES, 25 °C; 0.5 μM SMN-C2
[14] = system: DNA Seq14 (DNA, single strand) AGAAGGTAGGT; assay: fluorescence polarization; settings: 100 mM NaCl, 1 mM MgCl2; 20 mM HEPES, 25 °C; 0.5 μM SMN-C2
[15] = system: DNA Seq16 (DNA, single strand) TGAAGGAAAGT; assay: fluorescence polarization; settings: 100 mM NaCl, 1 mM MgCl2; 20 mM HEPES, 25 °C; 0.5 μM SMN-C2
[16] = system: RNA Seq4 (RNA, single strand) AAGAAGGAAGGUGC; assay: fluorescence polarization; settings: 100 mM NaCl; 20 mM HEPES, 25 °C, 0.5 μM compound
[17] = system: DNA Seq2 (DNA, single strand) GAAGGAAGG; assay: fluorescence polarization; settings: 100 mM NaCl, 1 mM MgCl2; 20 mM HEPES, 25 °C; 0.5 μM SMN-C2
[18] = system: DNA S26 (DNA, single strand) TGAAGGAAGG; assay: fluorescence polarization; settings: 100 mM NaCl, 1 mM MgCl2; 20 mM HEPES, 25 °C; 0.5 μM SMN-C2
[19] = system: DNA S27 (DNA, single strand) AGAAGGAAGG; assay: fluorescence polarization; settings: 100 mM NaCl, 1 mM MgCl2; 20 mM HEPES, 25 °C; 0.5 μM SMN-C2
[20] = system: DNA S1 (DNA, single strand) AAAAGAAGGAAGGTGCTC; assay: fluorescence polarization; settings: 100 mM NaCl, 1 mM MgCl2; 20 mM HEPES, 25 °C; 0.5 μM SMN-C2
[21] = system: DNA S8 (DNA, single strand) AAATGAAGGAAGGTGCTC; assay: fluorescence polarization; settings: 100 mM NaCl, 1 mM MgCl2; 20 mM HEPES, 25 °C; 0.5 μM SMN-C2
[22] = system: DNA S9 (DNA, single strand) AAAATAAGGAAGGTGCTC; assay: fluorescence polarization; settings: 100 mM NaCl, 1 mM MgCl2; 20 mM HEPES, 25 °C; 0.5 μM SMN-C2
[23] = system: S2 (DNA, single strand) AAAAGAAGGAAGGAGCAC; assay: fluorescence polarization; settings: 100 mM NaCl, 1 mM MgCl2; 20 mM HEPES, 25 °C, 0.5 μM compound
[24] = system: S3 (DNA, single strand) AAAAGAAGGAAGGTGATA; assay: fluorescence polarization; settings: 100 mM NaCl, 1 mM MgCl2; 20 mM HEPES, 25 °C, 0.5 μM compound
[25] = system: S4 (DNA, single strand) AAAAAGAAGAAGGTGCTC; assay: fluorescence polarization; settings: 100 mM NaCl, 1 mM MgCl2; 20 mM HEPES, 25 °C, 0.5 μM compound
[26] = system: S5 (DNA, single strand) AAAAGAAUGAAGGTGCTC; assay: fluorescence polarization; settings: 100 mM NaCl, 1 mM MgCl2; 20 mM HEPES, 25 °C, 0.5 μM compound
[27] = system: S10 (DNA, single strand) AAAAGTAGGAAGGTGCTC; assay: fluorescence polarization; settings: 100 mM NaCl, 1 mM MgCl2; 20 mM HEPES, 25 °C, 0.5 μM compound
[28] = system: S11 (DNA, single strand) AAAAGATGGAAGGTGCTC; assay: fluorescence polarization; settings: 100 mM NaCl, 1 mM MgCl2; 20 mM HEPES, 25 °C, 0.5 μM compound
[29] = system: S12 (DNA, single strand) AAAAGAAGTAAGGTGCTC; assay: fluorescence polarization; settings: 100 mM NaCl, 1 mM MgCl2; 20 mM HEPES, 25 °C, 0.5 μM compound
[30] = system: S13 (DNA, single strand) AAAAGAAGGTAGGTGCTC; assay: fluorescence polarization; settings: 100 mM NaCl, 1 mM MgCl2; 20 mM HEPES, 25 °C, 0.5 μM compound
[31] = system: S14 (DNA, single strand) AAAAGAAGGATGGTGCTC; assay: fluorescence polarization; settings: 100 mM NaCl, 1 mM MgCl2; 20 mM HEPES, 25 °C, 0.5 μM compound
[32] = system: S16 (DNA, single strand) AAAAGAAGGAAGTTGCTC; assay: fluorescence polarization; settings: 100 mM NaCl, 1 mM MgCl2; 20 mM HEPES, 25 °C, 0.5 μM compound
[33] = system: S21 (DNA, single strand) AAAAAAAGGAAGGTGCTC; assay: fluorescence polarization; settings: 100 mM NaCl, 1 mM MgCl2; 20 mM HEPES, 25 °C, 0.5 μM compound
[34] = system: S22 (DNA, single strand) AAAAGAAAGAAGGTGCTC; assay: fluorescence polarization; settings: 100 mM NaCl, 1 mM MgCl2; 20 mM HEPES, 25 °C, 0.5 μM compound
[35] = system: S23 (DNA, single strand) AAAAGAAGAAAGGTGCTC; assay: fluorescence polarization; settings: 100 mM NaCl, 1 mM MgCl2; 20 mM HEPES, 25 °C, 0.5 μM compound
[36] = system: S24 (DNA, single strand) AAAAGAAGGAAAGTGCTC; assay: fluorescence polarization; settings: 100 mM NaCl, 1 mM MgCl2; 20 mM HEPES, 25 °C, 0.5 μM compound
[37] = system: DNA Seq21 (DNA, hairpin) GCGCCGACTGAAGGAAGGAGTCGGCGC; assay: fluorescence polarization; settings: 100 mM NaCl, 1 mM MgCl2; 20 mM HEPES, 25 °C, 0.5 μM compound
[38] = system: RNA Seq22 (RNA, other) GUGCCAGUUCGCUGGCACUGAAGGAAGGU; assay: fluorescence polarization; settings: 100 mM NaCl; 20 mM HEPES, 25 °C, 0.5 μM compound

- Kd [1]: 5.4 µM
- Kd [2]: 17.5 ± 2.2 µM
- Kd [3]: > 100 µM
- Kd [4]: > 100 µM
- Kd [5]: 77.0 ± 26.0 µM
- Kd [6]: 48.2 ± 9.0 µM
- Kd [7]: 60 ± 36 µM
- Kd [8]: > 100 µM
- Kd [9]: 14.7 ± 0.7 µM
- Kd [10]: > 100 µM
- Kd [11]: 57.3 ± 20.0 µM
- Kd [12]: 17.6 ± 3.4 µM
- Kd [13]: > 100 µM
- Kd [14]: > 100 µM
- Kd [15]: 27.4 ± 6.0 µM
- Kd [16]: 21.7 ± 4.3 µM
- Kd [17]: 34.3 ± 9.6 µM
- Kd [18]: 6.2 ± 1.0 µM
- Kd [19]: 11.6 ± 1.7 µM
- Kd [20]: 15.3 ± 0.6 µM
- Kd [21]: 12.4 ± 0.4 µM
- Kd [22]: 56.2 ± 13.9 µM
- Kd [23]: 20.2 ± 1.7 µM
- Kd [24]: 21.7 ± 2.7 µM
- Kd [25]: > > 50 µM
- Kd [26]: 42.3 ± 4.2 µM
- Kd [27]: 26.4 ± 2.2 µM
- Kd [28]: 26.3 ± 1.2 µM
- Kd [29]: 37.4 ± 6.7 µM
- Kd [30]: 26.4 ± 2.2 µM
- Kd [31]: 19.5 ± 2.3 µM
- Kd [32]: 48.9 ± 12.2 µM
- Kd [33]: > > 50 µM
- Kd [34]: 44.7 ± 7.2 µM
- Kd [35]: > > 50 µM
- Kd [36]: 36.8 ± 11.4 µM
- Kd [37]: 12.8 ± 4.7 µM
- Kd [38]: 11.0 ± 0.8 µM
SMILES: CCN1CCN(c2ccc3cc(-c4cn5cc(C)nc(C)c5n4)c(=O)oc3c2)C[C@@H]1C
